# Reference: patent US20230321179A1, “N-ACYL AMINO ACID PRODUCTS AND USES” (THE REGENTS OF THE UNIVERSITY OF MICHIGAN, priority 2020, published 2023)
# Legend:
# PPARα = molecular target: T1, PPARα (Homo sapiens, UniProt Q07869); experiment: PPREx3-TK-luciferase PPARα reporter assay in COS-1 cells; format: cell-based; settings: 24 h
# T1 construct: expressed in transfected cells; host or cells: COS-1
# T1 sequence (Q07869 1-468): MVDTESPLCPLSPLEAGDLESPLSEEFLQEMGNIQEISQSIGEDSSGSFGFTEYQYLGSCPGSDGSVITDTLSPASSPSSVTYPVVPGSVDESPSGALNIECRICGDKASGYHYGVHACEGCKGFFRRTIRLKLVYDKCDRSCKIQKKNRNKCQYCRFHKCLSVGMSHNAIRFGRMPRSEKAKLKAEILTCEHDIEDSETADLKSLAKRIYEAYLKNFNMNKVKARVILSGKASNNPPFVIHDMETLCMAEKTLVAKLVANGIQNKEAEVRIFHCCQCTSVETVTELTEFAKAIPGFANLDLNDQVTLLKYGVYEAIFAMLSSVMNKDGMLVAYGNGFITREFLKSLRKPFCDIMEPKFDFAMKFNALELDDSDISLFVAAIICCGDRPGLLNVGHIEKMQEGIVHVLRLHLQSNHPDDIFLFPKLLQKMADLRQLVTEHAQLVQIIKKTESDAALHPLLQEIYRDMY
# Protocol: COS-1 and HepG2 cells were obtained from the American Type Culture Collection (ATCC) and cultured at 37° C. and 5% CO2 in Dulbecco’s Modified Eagle Medium (DMEM, Gibco) supplemented with 10% fetal bovine serum (FBS, Sigma-Aldrich) and 1% Penicillin-Streptomycin (Pen-Strep, Gibco). For luciferase assays, COS-1 cells were seeded in 96-well plates. At 60-70% confluence, transfection was performed using Lipofectamine 3000 (Invitrogen) with PPREx3-TK-luciferase, PPARα and Renilla constructs at 80 ng, 10 ng and 10 ng, respectively. 24 h post-transfection, cells were serum-starved and treated with 10 µM of the PPARα activator WY-14643 (Cayman Chemicals, 70730), 1 mM of glycine or tripepetide glycine-glycine-leucine or 10 µM of N-acyl amino acids for 24 h (Cayman Chemicals, C20:4-Gly 90051, C18:1-Leu 20064). Luciferase activity was assessed using the Dual-Luciferase Reporter Assay System (Promega) and normalized by Renilla.
# HepG2 cells [1] = experiment: Seahorse oxygen consumption rate and dependency on FAO; format: cell-based; settings: 10 µM acute stimulation, increase attenuated by etomoxir 6 µM
# Protocol: HepG2 cells were obtained from the American Type Culture Collection (ATCC) and cultured at 37° C. and 5% CO2 in Dulbecco’s Modified Eagle Medium (DMEM, Gibco) supplemented with 10% fetal bovine serum (FBS, Sigma-Aldrich) and 1% Penicillin-Streptomycin (Pen-Strep, Gibco). Oxygen consumption rate (OCR) and dependency on FAO were assessed using a Seahorse XFe96 Analyzer (Agilent). HepG2 cells were seeded at 2.5x10^4 cells/well in XF96 cell culture microplates (Agilent). The next day, XFe96 sensor cartridges were hydrated in accordance with the manufacturer’s instructions. Cells were treated (port 1) with N-acyl amino acids (10 µM) or vehicle (EtOH), Etomoxir (Agilent, 6 µM, port 2) and finally with rotenone+antimycin A (R/A, Agilent, port 3).
# HepG2 cells [2] = experiment: TG biosynthesis and hydrolysis by [3H]-acetate incorporation; format: cell-based; settings: 10 µM; for rate of TG biosynthesis: 3 h [3H]-acetate; for rate of TG hydrolysis: additional 3 h after [3H]-acetate withdrawal
# Protocol: For the TG biosynthesis and hydrolysis assays, HepG2 cells were seeded in 12-well plates. At 60-70% confluence, cells were treated with N-acyl amino acids (10 µM) or vehicle (EtOH) in serum-free medium supplemented with 0.1% BSA and stimulated for 3 h at 37° C. with [3H]-acetate (3.3 µCi/ml, ART 0202, American Radiolabeled Chemicals) to assess the rate TG biosynthesis. In some wells, the cells were washed twice with PBS ([3H]-acetate withdrawal) and incubated for additional 3 h with N-acyl amino acids (10 µM) or vehicle (EtOH) in serum-free medium supplemented with 0.1% BSA to assess the rate TG hydrolysis. At the end of the above incubation periods, cells were washed with twice with PBS. Cellular lipids were extracted using hexane (≥99%, Sigma-Aldrich 32293) and isopropanol (≥99.5%, Fisher Scientific A426-4) at a 3:2 ratio (v:v), and the hexane phase was left to evaporate for 48 h. Next, lipids were separated by thin layer chromatography (TLC) on silica gel plates (60 F254, M1057150001, Fisher Scientific) and developed in hexane / ether (≥99.9%, 309966, Sigma-Alrich) / acetic acid (≥99.7%, A38-212, Fisher Scientific) at a 130:30:1.5 ratio (v:v:v). TG spots were visualized by iodine vapor (using an appropriate standard for identification) and [3H]-labels were counted by a Tri-Carb 2810TR liquid scintillation analyzer (PerkinElmer). Data were normalized to protein levels and presented as count per minutes (CPM)/mg cell protein.
# [3] = system: C57BL/6J mice fed NASH diet; experiment: Treatment of NASH in mice with I.P. N-oleoyl leucine; format: in vivo; settings: 10 mg/kg/d I.P.
# Protocol: C57BL/6J mice were fed a standard diet (SD) or non-alcoholic steatohepatitis (NASH) diet for 16 weeks. After NASH confirmation, mice were randomized to receive 10 mg/kg/d (I.P.) N-oleoyl leucine (C18:1-Leu) or equivalent amounts of oleic acid (C18:1) or vehicle (EtOH) for an additional 6 weeks on the NASH diet. Control mice were fed the SD and administered vehicle.
# [4] = system: Apolipoprotein E-deficient (Apoe-/-) mice; experiment: Treatment of atherosclerosis in Western diet-fed mice with I.P. N-oleoyl leucine; format: in vivo; settings: 7.5 mg/kg/d I.P., 4 weeks
# Protocol: Apolipoprotein E-deficient (Apoe-′-) mice were fed a Western diet (WD) for 8 weeks. Mice were randomized to receive 7.5 mg/kg/d (I.P.) N-oleoyl leucine (C18:1-Leu) or equivalent amounts of oleic acid (C18:1) for an additional 4 weeks on the WD (n=10).
# [5] = system: C57BL/6J mice fed NASH diet; experiment: NASH diet mouse model, oral treatment with tripeptide glycine-glycine-leucine, glycine or leucine; format: in vivo
# Protocol: To explore the therapeutic potential of […] against NASH, an experimental approach to model advanced NAFLD was used. As described, C57BL/6J mice were fed a high-fat, high-fructose and high-cholesterol diet (NASH diet) for 12 weeks. After confirming NASH, the mice were randomized to receive orally […] at 0.125 or 0.5 mg/g/day, equivalent amounts of leucine, glycine or H2O for 12 additional weeks on NASH diet. Mice fed low-fat control diet (CD) and administered H2O served as control. Animal procedures were approved (PRO00008239) by the Institutional Animal Care & Use Committee of the University of Michigan (U-M) and performed in accordance with the institutional guidelines. Seven weeks-old male C57BL/were from Jackson Laboratories. After one week of acclimation, mice were fed ad libitum either low-fat control diet (CD, Research Diets D17072805, 10% fat) or high-fat, high-fructose and high-cholesterol diet (NASH diet, Research Diets D17010103). After confirming NASH, the mice were randomized to receive orally […] (Beijing SL Pharmaceutical) at 0.125 or 0.5 mg/g/day, equivalent amounts of leucine (0.17 mg/g/day, Sigma-AldrichL8912), glycine (0.33 mg/g/day, Sigma-Aldrich G5417) or H2O for 12 additional weeks on NASH diet. All histological procedures were performed by the In Vivo Animal Core (IVAC) Histology Laboratory at the U-M. Technicians were blinded to experimental groups. Formalin-fixed tissues were processed through graded alcohols and cleared with xylene followed by infiltration with molten paraffin using an automated VIP5 or VIP6 tissue processor (TissueTek, Sakura-Americas). Using a Histostar Embedding Station (ThermoFisher Scientific), tissues were then sectioned on a […] rotary microtome (ThermoFisher Scientific) at 4 μm thickness and mounted on glass slides. Slides were stained for hematoxylin and eosin (H&E, ThermoFisher Scientific). For Sirius Red staining, slides were treated with 0.2 phosphomolybdic acid for 3 min and transferred to 0.1% Sirius Red saturated in picric acid (Rowley Biochemical Inc.) for 90 min, then transferred to 0.01N hydrochloric acid for 3 min. Frozen section processing was used for Oil Red O staining. Formalin-fixed liver samples were cryoprotected in 20% sucrose at 4° C. overnight, blotted, then liquid nitrogen-snap frozen in OCT compound (Tissue-Tek, Cat #4583) and stored at -80° C. until ready for cryosectioning. Prior to sectioning, frozen blocks were brought up to about -20° C., then sectioned at 5 μm on a Cryotome SME (Thermo-Shandon, Cat# 77200227). Slides were stored at -80° C. until stained. Prior to staining, liver slides were thawed to room temperature for 30 min. Slides were post-fixed in 10% Neutral Buffered Formalin for 20 min, rinsed in DDW, followed by rinsing in 60% isopropanol before being placed in working Oil Red O-isopropanol stain (Rowley Biochemical Inc., H-503-1B) for 5 min. Slides were then rinsed in 60% isopropanol followed by three changes of DDW. Then, slides were nuclear counterstained in Harris Hematoxylin and mounted in Aqua-Mount (Lerner Laboratories, Cat# 13800) aqueous mounting media. Immunohistochemical staining was performed on a […] automated immunohistochemical stainer (Biocare Medical) with blocking for endogenous peroxidases and non-specific binding, followed by detection using a horseradish peroxidase biotin-free polymer based commercial detection system, disclosure with diaminobenzidine chromogen, and nuclear counterstaining with hematoxylin. Specific to F4/80, (Bio-Rad ABD Serotec, Cat# MCA497), the rat monoclonal primary antibody (clone CI:A3-1) was diluted to 1:400 in DaVinci Diluent (Biocare Medical, Cat# PD900) and incubated for 60 min followed by detection using Rat-on-Mouse HRP-Polymer, (Biocare Medical, Cat# RT517) 2-step probe-polymer incubation for 10 and 30 min respectively. H&E staining was used to score NAFLD activity score (NAS). Steatosis was scored from 0-3 (0: <5% steatosis; 1: 5-33%; 2: 34-66%; 3: >67%). […]
# [6] = NASH diet, oral treatment 12 weeks
# [7] = NASH diet, oral treatment 12 weeks, endpoint
structure (smiles),measurement,setting,value
CCCCC/C=C\C/C=C\C/C=C\C/C=C\CCCC(=O)NCC(=O)O [N-arachidonoyl glycine],"luciferase activity (PPARα activation), normalized by Renilla",PPARα; 10 µM,significantly increased
same,oxygen consumption rate (OCR),HepG2 cells [1],significantly increased
same,rate of TG biosynthesis,HepG2 cells [2],attenuated
same,rate of TG hydrolysis,HepG2 cells [2],significantly accelerated
CCCCCCCC/C=C\CCCCCCCC(=O)NCC(=O)O [N-oleoyl glycine],"luciferase activity (PPARα activation), normalized by Renilla",PPARα; 10 µM,significantly increased
CCCCCCCC/C=C\CCCCCCCC(=O)N[C@@H](CC(C)C)C(=O)O [N-oleoyl leucine],"luciferase activity (PPARα activation), normalized by Renilla",PPARα; 10 µM,significantly increased
same,oxygen consumption rate (OCR),HepG2 cells [1],significantly increased
same,rate of TG biosynthesis,HepG2 cells [2],attenuated
same,rate of TG hydrolysis,HepG2 cells [2],only N-arachidonoyl glycine (C20:4-Gly) significantly accelerated
same,body weight,"[3]; 6 weeks, NASH diet",lowers
same,hepatomegaly,"[3]; 6 weeks, liver weight to body weight ratio",significantly lowers
same,circulating liver enzymes,"[3]; 6 weeks, ALT, AST, ALP at endpoint",lowers
same,NASH diet-induced hepatic and systemic inflammation,"[3]; 6 weeks, F4/80, plasma CCL2, CCL5",significantly lowers
same,diet-induced NASH,"[3]; 6 weeks, H&E scoring, NAS",significantly lowers
same,hepatic steatosis,"[3]; 6 weeks, Oil red O histology",significantly lowers
same,NASH diet-induced hepatic fibrosis,"[3]; 6 weeks, Sirius red fibrosis score",significantly lowers
same,systemic energy balance in NASH,"[3]; CLAMS: RER, energy expenditure, food intake, total activity",no significant effect
same,adiposity,"[3]; NASH diet, NMR body composition",without affecting
same,body weight,"[4]; Western diet, vs oleic acid",no significant effects
same,plasma cholesterol,"[4]; Western diet, vs oleic acid",no significant effects
same,atherosclerotic plaque area,"[4]; aortic sinus H&E, vs oleic acid",significantly lowers
same,lesional macrophages,"[4]; aortic sinus Mac-2, vs oleic acid",significantly lowers
"Cc1cccc(Nc2cc(Cl)nc(SCC(=O)O)n2)c1C [WY-14643, reference compound]","luciferase activity (PPARα activation), normalized by Renilla",PPARα; 10 µM,significantly increased
NCC(=O)O [glycine],"decrease of hepatic levels of N-oleoyl glycine, N-arachidonoyl glycine and N-oleoyl leucine in NASH","[5]; LC-MS/MS of liver, chronic treatment",rescued
same,NASH diet-induced hepatomegaly,[5]; [6],significantly reduced
same,hepatic fibrosis (Sirius Red staining),[5]; [6],lower
same,hepatic inflammation (F4/80 macrophage staining),[5]; [6],lower
same,hepatic steatosis (histological analyses),[5]; [6],lower
same,increase in plasma levels of alanine aminotransferase (ALT),[5]; [7],attenuated
same,increase in plasma levels of aspartate aminotransferase (AST),[5]; [7],attenuated
same,suppression of hepatic expression of PPARα and its target genes in NASH,"[5]; RNA-sequencing, liver",reversed
same,"luciferase activity (PPARα activation), normalized by Renilla",PPARα; concentrations of up to 1 mM,neither glycine or tripepetide glycine-glycine-leucine showed a significant effect
